Source: publication PMC8179358, “An explicitly designed paratope of amyloid-β prevents neuronal apoptosis in vitro and hippocampal damage in rat brain” (Chemical Science, 2020)

What was measured:
SH-SY5Y cells = assay: Intracellular ROS (DCFH-DA); type: cell-based, human; settings: Aβ40 10 μM, 24 h
From the text: Condensed or fragmented nuclear bodies characterize the distinctive nature of apoptotic cells. […] Dyshomeostasis of Ca^2+ is also responsible for the increased production of Aβ peptides, by which a degenerative feed-forward cycle is activated, resulting in accelerated apoptosis, synaptic dysfunction, and memory impairment.[49]
The release of cytosolic enzyme lactate dehydrogenase (LDH) into the culture medium indicates cell death due to the disruption of membrane integrity. Cell deathwas assessed by measuring LDH release in the culture medium by photocolorimetric kit according to the manufacturer’s protocol (Abcam, Cambridge, MA, USA). […]
Next, 50 µl culture supernatant was collected from each well and added to an assay mixture that was prepared by adding an equal amount of LDH substrate, co-factors, and dye solutions and incubated in the dark for 40mins at 37°C. […] Absorbance was measured at 490 nm with a reference filter of 660nm. […]
Generation of intracellular reactive oxygen species was measured by a spectrofluorimetric method using peroxide sensitive fluorescent probe 2′,7′-Dichlorofluorescin diacetate (DCFH-DA).11 In brief, SH-SY5Y […]
or both for 24h. […] Cells were then washed twice with PBS, and fluorescent intensity was measured by using a fluorescence microplate reader (Bio Rad, CA, USA) with an excitation filter of 490 nm and an emission filter of 520 nm.

Bax, Bcl-2 = assay: Western blot, Bax and Bcl-2; type: cell-based, human; settings: Aβ40 alone (10 μM), compared to healthy cells
Procedure: e. Measurement of intracellular calcium (Ca 2+)
Ca2+sensitive dye Fura-2AM was used to measure free intracellular Ca2+level in SH-SY5Y cell suspension by the previously described method.12 Following treatment with the respective drug, Fura-2 AM (Cayman, USA) at a concentration of 5 µM was added to the culture medium and incubated at 37°C for 45 min. Next, Krebs-Ringer-HEPES (KRH) buffer (135mM NaCl, 5mM KCl, 1mM MgSO4, 0.4mM KH2PO4, 1mM CaCl2, 5.5mM glucose, 20mM HEPES, pH 7.4) was used to wash each plate twice containing (1×10^6cells). Fluorescent microplate reader (FLX 800, Biotek, USA) was used to measure the fluorescence intensity with an excitation and emission spectra of […], respectively. Results are Mean±SEM of quadruplicate measurements from three separate experiments and expressed in the increase in percent relative fluorescent unit (RFU) relative to the baseline reading.
Western blot analysis was performed to measure Bax, Bcl-2, cleaved Caspase 9 and cleaved Caspase 3, pro and anti-apoptotic proteins expression. About 5× 10^6 cells were washed with PBS twice following […]
overnight. […] The optical density (OD) value of each band was analyzed by the electrophoresis image analysis system (Smartview 2001, S/N: SV-0002202, Japan) and normalized against the corresponding β-actin band. […]

Aβ40: commercially available Aβ40 peptide
ROS marker intensity, Aβ40 alone (SH-SY5Y cells): increased in the presence of Aβ40 compared to untreated cells | ratio of Bax/Bcl-2 expression (Bax, Bcl-2): ~3.2 fold
